In patent US9469650B2, “Melampomagnolide B derivatives” (BOARD OF TRUSTEES OF THE UNIVERSITY OF ARKANSAS, priority 2013, dated 2016):
Where two headings read alike, the source gives them in different places.

Key:
[1] = tested on: HL-60(TB)
[2] = tested on: MOLT-4; assay: panel of 60 human tumor cell lines, growth inhibition (Leukemia); conditions: MOLT-4
[3] = tested on: SK-MEL-2; assay: panel of 60 human tumor cell lines, growth inhibition (Melanoma); conditions: SK-MEL-2
[4] = tested on: SK-MEL-28; assay: as above; conditions: SK-MEL-28
[5] = tested on: UACC-62; assay: as above; conditions: UACC-62
[6] = tested on: SF-539; assay: panel of 60 human tumor cell lines, growth inhibition (CNS Cancer); conditions: SF-539
[7] = tested on: SNB-19; assay: as above; conditions: SNB-19
[8] = tested on: COLO 205; assay: panel of 60 human tumor cell lines, growth inhibition (Colon Cancer); conditions: COLO 205
[9] = tested on: KM12; assay: as above; conditions: KM12
[10] = tested on: A498; assay: panel of 60 human tumor cell lines, growth inhibition (Renal Cancer); conditions: A498

## C=C1C(=O)O[C@H]2[C@H]1CC/C(COC(=O)N1CCN(C)CC1)=C\CC[C@@]1(C)O[C@@H]21 [JVM 2-44]
[1]
  GI50: 2.53 µM
  TGI: 9.30E−6
[1]; Log10 Concentration −4.0
  Mean Optical Densities: 0.925
  Percent Growth: −37%
[1]; Log10 Concentration −5.0
  Mean Optical Densities: 1.432
  Percent Growth: −3%
[1]; Log10 Concentration −6.0
  Mean Optical Densities: 2.594
[1]; Log10 Concentration −7.0
  Mean Optical Densities: 2.607
  Percent Growth: 87%
[1]; Log10 Concentration −8.0
  Mean Optical Densities: 2.812
  Percent Growth: 102%
[1]; read-out: LC50
  CC50: > 100 µM
[2]
  GI50: 5.49 µM
  TGI: 3.43E−5
[2]; Log10 Concentration −4.0
  Mean Optical Densities: 0.453
  Percent Growth: −30%
[2]; Log10 Concentration −5.0
  Mean Optical Densities: 1.062
  Percent Growth: 35%
[2]; Log10 Concentration −6.0
  Mean Optical Densities: 1.734
  Percent Growth: 92%
[2]; Log10 Concentration −7.0
  Mean Optical Densities: 1.794
  Percent Growth: 98%
[2]; Log10 Concentration −8.0
  Mean Optical Densities: 1.889
  Percent Growth: 106%
[3]
  GI50: 17.2 µM
  TGI: 3.60E−5
[3]; Log10 Concentration −4.0
  Mean Optical Densities: 0.382
  Percent Growth: −69%
[3]; Log10 Concentration −5.0
  Mean Optical Densities: 1.984
  Percent Growth: 87%
[3]; Log10 Concentration −6.0
  Mean Optical Densities: 2.148
  Percent Growth: 106%
[3]; Log10 Concentration −7.0
  Mean Optical Densities: 2.037
  Percent Growth: 93%
[3]; Log10 Concentration −8.0
  Mean Optical Densities: 2.082
  Percent Growth: 98%
[4]
  GI50: 7.03 µM
  TGI: 2.21E−5
[4]; Log10 Concentration −4.0
  Mean Optical Densities: 0.108
  Percent Growth: −80%
[4]; Log10 Concentration −5.0
  Mean Optical Densities: 0.950
  Percent Growth: 42%
[4]; Log10 Concentration −6.0
  Mean Optical Densities: 1.424
  Percent Growth: 93%
[4]; Log10 Concentration −7.0
  Mean Optical Densities: 1.424
  Percent Growth: 93%
[4]; Log10 Concentration −8.0
  Mean Optical Densities: 1.458
  Percent Growth: 96%
[5]
  GI50: 6.56 µM
  TGI: 2.14E−5
[5]; Log10 Concentration −4.0
  Mean Optical Densities: 0.089
  Percent Growth: −83%
[5]; Log10 Concentration −5.0
  Mean Optical Densities: 1.284
  Percent Growth: 41%
[5]; Log10 Concentration −6.0
  Mean Optical Densities: 2.153
  Percent Growth: 89%
[5]; Log10 Concentration −7.0
  Mean Optical Densities: 2.330
  Percent Growth: 99%
[5]; Log10 Concentration −8.0
  Mean Optical Densities: 2.369
  Percent Growth: 101%
[6]
  GI50: 5.01 µM
  TGI: 1.99E−5
[6]; Log10 Concentration −4.0
  Mean Optical Densities: 0.121
  Percent Growth: −79%
[6]; Log10 Concentration −5.0
  Mean Optical Densities: 1.049
  Percent Growth: 34%
[6]; Log10 Concentration −6.0
  Mean Optical Densities: 1.761
  Percent Growth: 87%
[6]; Log10 Concentration −7.0
  Mean Optical Densities: 1.799
  Percent Growth: 89%
[6]; Log10 Concentration −8.0
  Mean Optical Densities: 1.915
  Percent Growth: 97%
[7]
  GI50: 19.6 µM
  TGI: 6.35E−5
[7]; Log10 Concentration −4.0
  Mean Optical Densities: 0.513
  Percent Growth: −19%
[7]; Log10 Concentration −5.0
  Mean Optical Densities: 1.860
  Percent Growth: 79%
[7]; Log10 Concentration −6.0
  Mean Optical Densities: 2.030
  Percent Growth: 90%
[7]; Log10 Concentration −7.0
  Mean Optical Densities: 2.075
  Percent Growth: 93%
[7]; Log10 Concentration −8.0
  Mean Optical Densities: 2.149
  Percent Growth: 97%
[8]
  GI50: 4.44 µM
  TGI: 1.76E−5
[8]; Log10 Concentration −4.0
  Mean Optical Densities: 0.159
  Percent Growth: −67%
[8]; Log10 Concentration −5.0
  Mean Optical Densities: 0.767
  Percent Growth: 22%
[8]; Log10 Concentration −6.0
  Mean Optical Densities: 1.790
  Percent Growth: 101%
[8]; Log10 Concentration −7.0
  Mean Optical Densities: 1.715
  Percent Growth: 95%
[8]; Log10 Concentration −8.0
  Mean Optical Densities: 1.784
  Percent Growth: 100%
[9]
  GI50: 14.2 µM
  TGI: 3.13E−5
[9]; Log10 Concentration −4.0
  Mean Optical Densities: 0.105
  Percent Growth: −74%
[9]; Log10 Concentration −5.0
  Mean Optical Densities: 1.680
  Percent Growth: 72%
[9]; Log10 Concentration −6.0
  Mean Optical Densities: 2.184
  Percent Growth: 101%
[9]; Log10 Concentration −7.0
  Mean Optical Densities: 2.151
  Percent Growth: 99%
[9]; Log10 Concentration −8.0
  Mean Optical Densities: 2.117
  Percent Growth: 97%
[10]
  GI50: 10.2 µM
  TGI: 3.47E−5
[10]; Log10 Concentration −4.0
  Mean Optical Densities: 0.967
  Percent Growth: −43%
[10]; Log10 Concentration −5.0
  Mean Optical Densities: 2.150
  Percent Growth: 51%
